# According to publication PMC3764137, “Sulphamoylated 2-Methoxyestradiol Analogues Induce Apoptosis in Adenocarcinoma Cell Lines” (PLoS ONE, 2013):
# Entries after “also recorded” stand apart in the source; their conditions may differ.
# Legend:
# HeLa cells [1] = experiment: Cell morphology by transmission electron microscopy; type: cell-based, human; conditions: 24 h
# Protocol: The in vitro influence of ESE-15-one, EMBS and ESE-16 on cell morphology was determined after exposure for 24 h using transmission electron microscopy (TEM). […] After each fixation step the samples were rinsed 3 times in 0.0075 M sodium phosphate buffer (pH 7.4). Samples were dehydrated using increasing concentrations of ethanol (30%, 50%, 70%, 90%, and 3×100%) and embedded in Quetol resin, sectioned with a microtome and placed on copper discs. Sections were contrasted with 4% aqueous uranyl acetate and Reynolds' lead citrate and viewed with a JOEL JEM 2100F transmission electron microscope (Electron Microscopy Unit, University of Pretoria, South Africa).
# MDA-MB-231 = conditions: 500 nM, 72 hours of exposure; ref 13 (Foster et al. 2008); cited from earlier work
# MCF-7 cell line = conditions: cited from earlier work
# tubulin = experiment: Tubulin polymerization assay (DAPI fluorescence); type: biochemical; conditions: for EC50: in vitro tubulin polymerization, read-out: tubulin polymerization inhibition EC50
# Protocol: Briefly, microtubule assembly was conducted in a half area 96 well black plate using a microplate reader FLUOstar OPTIMA (BMG Labtechnologies). […] Following 10 min incubation, assembly was initiated by injection of GTP and MgCl2 to a final concentration of 1 mM and 5 mM respectively, yielding a reaction volume of 100 µl. The excitation and emission wavelengths were set at 360 and 450 nm, respectively, and the fluorescence of microtubule-bound DAPI was monitored as a function of time at 37°C. Fluorescence signal at time 0 for each well was subtracted from each of the subsequent fluorescence readings, [22].
# [2] = tested on: human umbilical vein endothelial cells (HUVECs); conditions: 500 nM, 72 hours of exposure; ref 13 (Foster et al. 2008); cited from earlier work
# HeLa cells [3] = experiment: Cell number determination by crystal violet staining; type: cell-based, human; conditions: for cell growth: 24 h
# Protocol: Crystal violet is a method used to determine the number of cells by staining the deoxyribonucleic acid (DNA). Gillies et al. (1986) used crystal violet to quantify cell number in monolayer cultures as a function of the absorbance of the dye taken up by the cells. A dose-dependent study was chosen with a concentration range of 0.1–25 μM since it was previously observed in our laboratory that this concentration series exerts antiproliferative activity in HeLa cells. Exponentially growing HeLa cells were seeded in 96 well tissue culture plates at a cell density of 5,000 cells per well. Cells were incubated at 37°C in a humidified atmosphere containing 5% CO2 for 24 h to allow for attachment. To establish the starting number of cells, a baseline determination was conducted before exposure. Subsequently, the medium was discarded and cells were exposed to the sulphamoylated 2ME2 analogues at a concentration series of 0.1–25 μM for the 24 h at 37°C. Vehicle-treated controls were also included. Cells were fixed with 100 µl of 1% gluteraldehyde (incubation for 15 min at room temperature). Gluteraldehyde was discarded and cells were stained using 100 µl 0.1% crystal violet (incubated at room temperature for 30 min). Excedent crystal violet was discarded and the 96 well plate was submersed under running water. Cells were solubilized using 200 µl 0.2% Triton X-100 and incubated at room temperature for 30 min. Solution (100 µl) was transferred to a new microtitre plate. Afterwards, the absorbance was determined at 570 nm using an ELx800 Universal Microplate Reader available from Bio-Tek Instruments Inc. (Vermont, United States of America).
# caspase-6 = experiment: Caspase 6 colorimetric assay; type: cell-based, human; conditions: 0.5 μM, 24 h
# Protocol: (§1) Possible activation of caspase 3, -6 and -8 was investigated by means of caspase 3, caspase 6 and FLICE/caspase 8 colorimetric kits, respectively. Cells (1,000,000) were seeded with an overnight attachment policy. After 24 h of exposure to 0.5 μM of the sulphamoylated 2ME2 analogues, cells were detached with trypsin and centrifuged at 13,000× g. Cells (500,000) were resuspended in 50 µl of chilled cell lysis buffer and incubated on ice for 10 min. Cells were centrifuged at 10,000×g for a min. Supernatant was transferred to a fresh tube and put on ice. After determination of the protein concentration using the bicinchoninic acid (BCA) protein assay (Thermo Fisher Scientific, Johannesburg, South Africa), 100 µg protein/50 µl cell lysis buffer was mixed with 50 µl 2X reaction buffer (containing 10 mM Dithiothreitol (DTT)). Ac-Asp-Glu-Val-Asp-p-nitroanilide (Ac-DEVD-pNA) (5 µl of 4 mM) (caspase-3-specific substrate), or 5 µl 4 mM […] (Ac-VEID-pNA) (caspase-6-specific substrate), or 5 µl 4 mM Ac-Ile-Glu-Thr-Asp-p-nitroanilide (Ac-IETD-pNA) (caspase-8-specific substrate) was added and the mixture was incubated at 37°C for 120 min (200 µM final concentration). Absorbance was determined at 405 nm on the ELx800 Universal Microplate Reader available from Bio-Tek Instruments Inc. (Vermont, United States of America).
# caspase-8 = experiment: FLICE/caspase 8 colorimetric assay; type: cell-based, human; conditions: 0.5 μM, 24 h
# Protocol: as §1
# HeLa cells [4] = experiment: Double immunofluorescence of intracellular microtubules; type: cell-based, human; conditions: 24 h, 0.189 μM ESE-15-one, 0.5 μM EMBS and ESE-16, 1μM colchicine
# Protocol: (§2) In order to visualize the effect of the 2ME2 analogues on microtubule dynamics and integrity, a double immunofluorescence technique using antibodies against tyrosinated and detyrsosinated tubulin was conducted as described by Paturle-Lafanechère et al. (2004). HeLa and MDA-MB-231 cells were seeded onto sterilized coverslips and allowed to grow to 80% confluency for 48 h. Cells were exposed to 0.189 μM ESE-15-one, 0.5 μM EMBS and ESE-16 along with DMSO (negative control) and 1μM colchicine as a positive control for 24 h. Cells were permeablised permeabilized with warmed OPT buffer (80 mmol/L Pipes, […], […], 0.5% Triton X-100 and glycerol 10%, pH 6.8), followed by fixation in ice-cold methanol at −20°C and were subsequently incubated with the primary antibody cocktail (PBS containing anti-detyrosinated tubulin (L4), anti-[…], BSA 0.3%, tween 0.1%). After incubation, cells were incubated with the secondary antibodies, namely Alexa 488 (Invitrogen) and Cy3 (Jackson ImmunoResearch laboratories). Samples were visualized using a Zeiss AxioImager Z1 microscope controlled by Axiovision softwared (Carl Zeiss) (X63 oil objective). Images were captured using an Ocra R2 N/B camera (Hamamatsu) and assessed for microtubule integrity and ratio of tyrosinated to detyrosinated tubulin.
# MDA-MB-231 cells [5] = experiment: as above; type: cell-based, human; conditions: MDA-MB-231, 24 h; 0.189 μM ESE-15-one, 0.5 μM EMBS and ESE-16, 1μM colchicine
# Protocol: as §2
# HeLa cells [6] = experiment: Mitochondrial membrane potential assay (Mitocapture, flow cytometry); type: cell-based, human; conditions: 0.5 μM analogues (2-methoxyestradiol-bis-sulphamate 0.55 μM), 24 h
# Protocol: Cells (500,000) were seeded with an overnight attachment policy. After 24 h of exposure to 0.5 μM of the sulphamoylated 2ME2 analogues, cells were detached using trypsin and centrifuged at 13,000×g.
# HeLa cells [7] = experiment: Cytochrome c release (FlowCellect, flow cytometry); type: cell-based, human; conditions: 0.5 μM analogues (2-methoxyestradiol-bis-sulphamate 0.55 μM), 24 h
# Protocol: (§3) This kit utilizes a unique set of buffers that selectively permeabilizes the […] without affecting the mitochondrial membrane. […] Cells (500,000) were seeded with an overnight attachment policy. After 24 h of exposure to 0.5 μM of the sulphamoylated 2ME2 analogues, cells were detached using trypsin and centrifuged at 13,000×g. Cells (500,000) were resuspended in PBS, centrifuged and resuspended in permeabilization buffer (according to supplier's instructions) for 10 min on ice. Subsequently cells were centrifuged, resuspended in 100 µl fixation buffer (according to supplier's instructions) for 20 min at room temperature, centrifuged again and resuspended in blocking buffer (150 µl). After another centrifugation step, cells were centrifuged and resuspended in blocking buffer (twice). Anti-cytochrome c-FITC (10 µl) was added to each sample and samples were incubated for 30 min at room temperature. Cells were centrifuged and blocking buffer (100 µl) was added. After centrifugation, blocking buffer (200 µl) was added to the samples for analysis via flow cytometry (FC500 System flow cytometer, Beckman Coulter South Africa (Pty) Ltd). Cells presenting with cytochrome c release were detected in the fluorescein isothiocyanate (FITC) channel (FL1) showing diffused green fluorescence. Data from at least 10 000 cells were analyzed by means of Cyflogic version 1.2.1 software (Pertu Therho, Turko, Finland).
# MDA-MB-231 cells [8] = experiment: Cytochrome c release (FlowCellect, flow cytometry); type: cell-based, human; conditions: MDA-MB-231, 0.5 μM analogues (2-methoxyestradiol-bis-sulphamate 0.55 μM), 24 h
# Protocol: as §3
# caspase 3 = conditions: HeLa cells; another study conducted in our laboratory (data not shown); cited from earlier work
Compound,apoptotic bodies (TEM) (HeLa cells [1]),vacuoles (TEM) (HeLa cells [1]),inner mitochondrial membrane potential (MDA-MB-231),concentration with antiproliferative activity (MCF-7 cell line),EC50 (tubulin),inner mitochondrial membrane potential [2],cell growth (HeLa cells [3]; 0.1 µM),"cell growth (HeLa cells [3]; 0.5 µM, compared to vehicle-treated cells)",concentration that significantly inhibits HeLa proliferation (HeLa cells [3]; 24 h of exposure),cell shrinkage (TEM) (HeLa cells [1]; compared to vehicle-treated cells),caspase-6 activity ratio compared to vehicle-treated cells (caspase-6),caspase-8 activity increase compared to vehicle-treated cells (caspase-8),microtubule integrity (HeLa cells [4]),microtubule integrity (MDA-MB-231 cells [5]),cells with reduced mitochondrial potential (HeLa cells [6]),effect on tubulin polymerization (tubulin; in vitro),Cytochrome c in cytoplasm (cells with cytochrome c release) (HeLa cells [7]),Cytochrome c in cytoplasm (cells with cytochrome c release) (MDA-MB-231 cells [8]),caspase 3 activity increase (caspase 3)
"COc1cc2c(cc1OS(N)(=O)=O)CC[C@@H]1[C@@H]2CC[C@]2(C)[C@@H](OS(N)(=O)=O)CC[C@@H]12 [2-methoxyestradiol-bis-sulphamate, reference compound]",Apoptotic bodies were observed,vacuoles,depolarized,0.1 to 1 µM,11 µM,depolarized,,,,,,,,,,,,,
"CCc1cc2c(cc1OS(N)(=O)=O)CC[C@@H]1[C@@H]2CC[C@]2(C)C=CC[C@@H]12 [ESE-16, 2-ethyl-3-O-sulphamoyl-estra-1,3,5 (10) 16-tetraene]",Apoptotic bodies were observed,vacuoles,,,5 µM,,45.59%,45.30%,0.5 µM,shrunken,3.2,1.7 fold,microtubule abrogation; also recorded: complete microtubule depolymerisation,detyrosinated microtubule fragments,68.43%,more pronounced effect on tubulin polymerization; also recorded: pronounced effect comparable with that of colchicine,10%,30%,8 fold
"COc1cc2c(c(OC)c1OC)-c1ccc(OC)c(=O)cc1[C@@H](NC(C)=O)CC2 [colchicine, reference compound]",,,,,,,,,,,,,only fragments of detyrosinated microtubules remaining; also recorded: complete microtubule depolymerisation,complete microtubule depolymerisation,,,,,
